Experimental data from patent US20210308211A1, “METHOD OF TREATING VIRAL INFECTIONS” (priority 2020, published 2021).
“And” between values parts separate entries of the source, which are not always exact repeats. Equal entries are not always repeated. “Also recorded” adds a separate entry of the source. Non-standard residues stand in square brackets, D forms with d. Residues, ends and D or L forms follow the SMILES beside them. pS = N[C@@H](COP(=O)(O)O)C(=O)O

Tests used:
MRL/lpr B cells [1] = test: Cellular uptake of fluorescent P140 in MRL/lpr B cells (flow cytometry, confocal); type: cell-based, mouse
Source text: FIG. 8. Cellular uptake of fluorescent P140 peptide in 5.4% mannitol or 10% trehalose in MRL/lpr B cells and Raji cells as visualized by flow cytometry. B cells were from 12-14 week-old MRL/lpr mice (primary cells); Raji cells are an established cell line derived in 1963 from B-lymphocyte of a patient with Burkitt's lymphoma.
FIG. 9. Confocal images of B cells of FIG. 10. All confocal images were taken in the same microscopic settings. Rab9 (red) identifies the late endosomal compartment where P140 localizes before homing into lysosomes DAPI (blue) identifies DNA.
For P140 peptide activity, HSC70 binding and endocytosis appear to be important. It is believed that endocytosis must occur through the clathrin route. This implies that peptide+excipient should have a size in the range of 30 to 500 nm in diameter. For example P140+mannitol are in the 100 nm region whereas P140+trehalose are below 10 nm and therefore not effective binding to HSC70. […] B cells were from 12-14 week-old MRL/lpr mice (primary cells); Raji cells are an established cell line derived in 1963 from B-lymphocyte of a patient with Burkitt's lymphoma. […] The confocal images show the late endosomal compartment where P140 localizes before homing into lysosomes; DAPI identifies DNA.

Balb/c mice = test: 15-day ovalbumin-induced airway hypereosinophilia model, BAL cell counts; type: in vivo, mouse; conditions: for B cells / Eosinophils / Macrophages / Neutrophils / T cells / Total cells: per mouse
Description: The anti-inflammatory effect of the P140 phosphopeptide was evaluated when administered locally (intranasally) or systemically (intravenously) in a 15-day model of hypereosinophilic airway inflammation in mice.
The P140 phosphopeptide was solubilized in sterile water (Braun) and 10× concentrate sterile saline was added to adjust osmolarity to 300 mosm. Osmolarity was controlled with a micro osmometer (Löser, type 15) and validated (302 mosm).
The P140 phosphopeptide was used in vivo at the dose of 4 mg/kg by intranasal (i.n.) and intravenous (i.v.) routes. Control animals received equivalent volumes (1 ml/kg for i.n. and 2 ml/kg for i.v.) of saline (Table 6).
Nine-week-old male Balb/c mice were sensitized by intraperitoneal (i.p.) injections of a mixture containing 50 μg OVA (Sigma-Aldrich) and 2 mg alum (Sigma-Aldrich) in 0.1 ml saline. Mice were challenged by i.n. administration of 25 μl of OVA on day 5, then 25 μl of OVA and/or saline on day 12, 13 and 14. Mice were treated by i.v. injection (2 ml/kg) or i.n. administration (1 ml/kg) of P140 or solvent on day 9 (See FIG. 9).
BAL was performed twenty-four hours after […] challenge as described (Daubeuf, F. and Frossard, N. 2012. Performing Bronchoalveolar Lavage in the Mouse. Curr Protoc Mouse Biol 2:167-175). Mice were anaesthetized IP (Ketamine 150 mg/kg—Xylasine 10 mg/kg). Blood was collected from the heart, centrifuged at 10,000 g for 2 min and serum stored at −20° C. After semi-excision of the trachea, a plastic cannula was inserted, and airspace washed with 0.5 ml of 0.9% NaCl injected with a 1 ml syringe. This procedure was performed 10 times. The initial concentrated supernatant of the 2 first lavages (volume=2×0.5 ml administered, ˜0.5 ml recovered) was collected for cytokine measurements. The remaining BAL fluid was centrifuged (300 g for 5 min, 4° C.), and cell pellets pooled. The cell pellet was suspended in 500 μl of 0.9% NaCl and used for total cell counts evaluated on a Muse® Cell Analyser. Differential cell counts were assessed by flow cytometry (LSRII® cytometer, BD Bioscience). BAL cells were added with FCblock (0.5 μl, 553142, BD Bioscience) in a black microplate, incubated for 20 min at room temperature. Then, marker antibodies were added: CD11c-FITC (557400, BD bioscience), Gr-1-Pe-eFluor610 (61-5931-82, eBioscience), CD11b-APC-Cy7 (557657, BD bioscience), CD45-AlexaFluor700 (103128, BioLegend), CD3-BV605 (564009, BD bioscience), CD19-PE-Cy7 (552854, BD bioscience). Antibodies were incubated with BAL cells for 30 min at room temperature before DAPI (5 μl, BD bioscience) addition, and flow cytometry was performed immediately.
Data are presented as means±SEM. Differences between groups were tested for statistical significance using one-way ANOVA followed by Tukey's post-test. For statistical analysis, control groups 1, 2 and 3 were pooled.

[2] = test system: peripheral T cells from lupus patients; conditions: cited from earlier work
MRL/lpr B cells [3] = conditions: cited from earlier work
Lewis rats = test: Chronic-EAN rat model of CIDP; conditions: 100 μg/rat i.p.
Description: Male Lewis rats, 7-8 weeks old, weighing 250-270 g, purchased from Charles River (Domaine des Oncins, L′Arbresle, France) were used.
Body weight and clinical scores are assessed daily until 60 days post-immunization (dpi). Severity of paresis is graded as follows: 0=no illness; 1=flaccid tail; 2=moderate paraparesis; 3=severe paraparesis; 4=tetraparesis; 5=death.
100 μg/rat P140 peptide in 500 μL water/saline (1:10) were intraperitoneally injected at 5, 7, 9, 13 dpi and 3 times per week from 22 dpi until the end of the study.

[4] = BAL, P140-IN (i.n. 4 mg/kg, day 9), OVA challenge
[5] = BAL, P140-IN (i.n. 4 mg/kg, day 9), saline challenge
[6] = BAL, P140-IV (i.v. 4 mg/kg, day 9), OVA challenge
[7] = BAL, P140-IV (i.v. 4 mg/kg, day 9), saline challenge

In the case of `CC[C@H](C)[C@H](NC(=O)[C@H](Cc1ccccc1)NC(=O)[C@H](C)NC(=O)[C@H](Cc1ccc(O)cc1)NC(=O)CNC(=O)[C@H](CCCNC(=N)N)NC(=O)[C@@H]1CCCN1C(=O)[C@H](CCCCN)NC(=O)CNC(=O)[C@H](COP(=O)(O)O)NC(=O)[C@H](CCCNC(=N)N)NC(=O)[C@H](CCCCN)NC(=O)[C@H](CO)NC(=O)[C@H](Cc1ccc(O)cc1)NC(=O)[C@@H](NC(=O)[C@H](CCSC)NC(=O)[C@H](Cc1c[nH]cn1)NC(=O)[C@@H](NC(=O)[C@@H](N)CCCNC(=N)N)[C@@H](C)CC)C(C)C)C(=O)N[C@@H](CCC(=O)O)C(=O)N[C@@H](Cc1ccc(O)cc1)C(=O)O` [Compound P140] (H-RIHMVYSKR[pS]GKPRGYAFIEY-OH; N-terminus and C-terminus assumed), the “Cellular uptake (flow cytometry)” value (MRL/lpr B cells [1]; fluorescent peptide in 10% trehalose compared with 5.4% mannitol, MRL/lpr B cells) is reported as “Much less cellular uptake”, the “Entry into B cells (confocal microscopy)” value (MRL/lpr B cells [1]; peptide in trehalose compared with mannitol) is reported as “enters B cells much less” and the B cells (Balb/c mice; [4]) is reported as 25606 and 32251 and 26562 and 23383 and 33156 and 13236. The Eosinophils (Balb/c mice; [4]) was 490306 and 497948 and 737671 and 839841 and 792249 and 615171, the Macrophages (Balb/c mice; [4]) was 271110 and 322340 and 247391 and 538954 and 436210 and 286509 and the Neutrophils (Balb/c mice; [4]) was 57542 and 60787 and 62354 and 95173 and 47346 and 65366. For the same molecule, the T cells (Balb/c mice; [4]) was 44036 and 61800 and 73159 and 118360 and 101951 and 61293, the Total cells (Balb/c mice; [4]) was 862995 and 942875 and 1120576 and 1592328 and 1377755 and 1028339 and the B cells (Balb/c mice; [5]) was 112 and 242. For the same molecule, the Eosinophils (Balb/c mice; [5]) was 168 and 103, the Macrophages (Balb/c mice; [5]) was 388102 and 434029 and the Neutrophils (Balb/c mice; [5]) was 56 and 61. The T cells (Balb/c mice; [5]) was 4135 and 4180, the Total cells (Balb/c mice; [5]) was 392461 and 438573 and the B cells (Balb/c mice; [6]) was 10219 and 15209 and 14027 and 17417 and 11003 and 10922. For the same molecule, the Eosinophils (Balb/c mice; [6]) was 425928 and 272763 and 473105 and 470027 and 327186 and 429469, the Macrophages (Balb/c mice; [6]) was 439265 and 442055 and 244523 and 293070 and 342134 and 379565 and the Neutrophils (Balb/c mice; [6]) was 42783 and 21442 and 59616 and 76867 and 40275 and 31756. The T cells (Balb/c mice; [6]) was 41744 and 43881 and 32677 and 55502 and 28857 and 45030, the Total cells (Balb/c mice; [6]) was 949720 and 780142 and 809921 and 895467 and 738452 and 885821 and the B cells (Balb/c mice; [7]) was 70 and 266. For the same molecule, the Eosinophils (Balb/c mice; [7]) was 110 and 166, the Macrophages (Balb/c mice; [7]) was 335658 and 335200 and the Neutrophils (Balb/c mice; [7]) was 259 and 133. For the same molecule, the T cells (Balb/c mice; [7]) was 5311 and 4790, the Total cells (Balb/c mice; [7]) was 341738 and 340389 and the “Number of cells recovered in BAL fluid as compared to vehicle” value (Balb/c mice; control mice challenged with saline, i.n. or i.v.) was “little effect”. For the same molecule, the “Inflammatory cell recruitment in BAL (in words)” value (Balb/c mice; i.n. route, 4 mg/kg, OVA challenge) was “little effect; also recorded: without substantial effect”, the “Neutrophils recruitment, change vs OVA group” value (Balb/c mice; i.v. 4 mg/kg, OVA challenge, BAL, not significant) was −38% and the “Eosinophil recruitment, change vs OVA group” value (Balb/c mice; i.v. 4 mg/kg, OVA challenge, BAL, p<0.001) was −50%. For the same molecule, the “T cells recruitment, change vs OVA group” value (Balb/c mice; i.v. 4 mg/kg, OVA challenge, BAL, p<0.01) was −66%, the “B cells recruitment, change vs OVA group” value (Balb/c mice; i.v. 4 mg/kg, OVA challenge, BAL, p<0.05) was −42% and the “Anti-inflammatory effect (in words)” value (Balb/c mice; i.v. administration 4 mg/kg, OVA challenge) was “shows anti-inflammatory effect”. The “Proliferation of peripheral T cells from lupus patients” value ([2]; ex vivo (Monneaux et al., 2005)) was “does not induce proliferation”, the “Secretion of regulatory cytokine IL-10 in cell cultures” value ([2]; ex vivo, T cells from lupus patients (Monneaux et al., 2005)) was “high levels” and the “Autophagy markers SQSTM1 and MAP1LC3” value (MRL/lpr B cells [3]; MRL/lpr B cells after P140 treatment (Page et al., 2011)) was “accumulation”. The “Expression of HSPA8 and LAMP-2A” value (MRL/lpr B cells [3]; MRL/lpr B cells after treating mice (Page et al., 2011; Macri et al., in press)) was “down-regulated”, the “Chronicity of the disease” value (Lewis rats) was “seems abolish the chronicity” and the Maximal clinical scores (Lewis rats; compared to untreated rats) was “decreased”. The “Onset of the disease” value (Lewis rats; compared to untreated rats) was “delayed” and the “Weight loss during the disease course” value (Lewis rats; compared to untreated rats) was “less important”.
